The subject of this data set is human colon cancer cell strain colon 38. Briefly: Anti-tumor effect with 5-fluorouracil in human cancer xenograft tumor animal model. The format is in vivo. To be noted: after 4 weeks. The source says:
According to methods described in “Methodology in Pharmacological Research of Traditional Chinese Medicine” (People's Medical Publishing House), test the anti-tumor effects of Formula A, B, C, D traditional Chinese medicine composition prepared from Embodiment 1-4 along with chemotherapy drugs (5-fluorouracil) for human cancer xenograft tumor animal model. 5-fluorouracil (fu) is broad spectrum anti-tumor medicine, it is mainly used to treat digestive tract tumor, commonly seen adverse reactions include nausea, reduced appetite or vomit, abdomen discomfort or diarrhea. About the test method, use human colon cancer cell strain colon 38 to inoculate subcutaneously in 18-23 g mouse, 14 days after the inoculation, respectively ingest Formula A, B, C, D traditional Chinese medicine composition prepared from Embodiment 1-4 into the stomach of each group of animals, the dosage is 500 mg/kg; 0.5-1 hour after stomach ingestion, inject 5-fluorouracil into abdomen, the dosage is 30 mg/kg. Execute stomach ingestion and drug injection twice each week, totaling 4 weeks.

With `O=c1[nH]cc(F)c(=O)[nH]1` [fu, 5-fluorouracil], the “Average tumor weight” value (formula 500 mg/kg into stomach, fu 30 mg/kg into abdomen, twice each week) turned out to be 0.42 ± 0.11 g. The compound also had a Death number (of 10 supplied mice) of 5. Moreover, for the setting “versus CK group's average tumor weight”, the “Tumor inhibition rate (%)” value turned out to be 64%.

The values are drawn from patent US20120231097A1, “MEDICINAL COMPOSITION AND USAGE” (priority 2009, published 2012).
